According to patent US9585885B2, “Substituted pyrido[2,3-g]quinazolines as dopamine D2 receptor agonists” (KISSEI PHARMACEUTICAL CO., LTD., priority 2012, dated 2017):
Where two headings read alike, the source gives them in different places.

Columns and labels:
[1] = biological target: T1, human serotonin 5-HT2B receptor (Homo sapiens, UniProt P41595); assay: Stimulating activities of human serotonin 5-HT2B receptor, intracellular calcium in forced expression HEK293 cells; format: cell-based; conditions: intracellular calcium concentration, mean value (n=2)
T1 construct: expressed in transfected cells; host or cells: HEK293 (transient transfection)
T1 sequence (P41595 whole entry): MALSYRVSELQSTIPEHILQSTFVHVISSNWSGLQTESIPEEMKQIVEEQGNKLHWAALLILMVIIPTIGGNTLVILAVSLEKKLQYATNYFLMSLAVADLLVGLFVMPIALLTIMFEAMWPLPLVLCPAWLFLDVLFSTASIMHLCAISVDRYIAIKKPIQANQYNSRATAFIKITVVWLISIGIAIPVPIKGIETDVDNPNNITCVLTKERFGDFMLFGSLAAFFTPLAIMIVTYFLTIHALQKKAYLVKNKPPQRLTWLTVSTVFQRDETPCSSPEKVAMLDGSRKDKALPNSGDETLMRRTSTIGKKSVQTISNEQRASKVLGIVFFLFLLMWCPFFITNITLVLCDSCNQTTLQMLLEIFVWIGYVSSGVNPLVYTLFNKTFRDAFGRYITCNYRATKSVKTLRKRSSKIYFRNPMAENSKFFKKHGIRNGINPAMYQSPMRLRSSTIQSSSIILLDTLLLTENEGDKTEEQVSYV
Experimental: Identification Test of Stimulating Activities on Human Serotonin 5-HT2B Receptor
Mostly confluent HEK293 cells were washed with PBS, followed by exfoliation with 0.05% trypsin-EDTA and the cells were suspended in D-MEM liquid medium (phenol red-free, low glucose, pyruvic acid were contained) containing fetal bovine serum (final concentration: 10%) and GlutaMax (registered mark) I (final concentration: 2 mM). The suspension was scattered at 5×10^4 cells/100 μL/well on poly-D-lysine-coated 96-well microplate (BD BioCoat (registered mark)). The scattered cells were cultured in 5% CO2 incubator at 37° C. Human serotonin 5-HT2B receptor expression plasmid was transfected in that cells according to the procedure seeing below.
Human serotonin 5-HT2B receptor expression plasmid and Lipofectamine (registered mark) 2000 (Invitrogen) were diluted to 0.008 g/L and 0.016 g/L each other with OPTI-MEM (registered mark) I Reduced-Serum Medium and incubated at room temperature. After incubation, the human serotonin 5-HT2B receptor expression plasmid-diluted liquid and Lipofectamine (registered mark) 2000-diluted liquid were mixed at an equal volume and incubated at room temperature to form a complex. The complex was dispensed at 50 μL/well on the cells prepared above. The cells were incubated in 5% CO2 incubator at 37° C. for 2 days. After incubation, the cells were used as human serotonin 5-HT2B receptor forced expression cells for measurement of intracellular calcium concentration.
The stimulating activities of human serotonin 5-HT2B receptor was determined by measuring of intracellular calcium concentration. The 30 mM dimethyl sulfoxide (DMSO) solution contained test compounds or serotonin hydrochloride (Sigma) as positive control, was diluted with assay buffer ((HBSS), 20 mM HEPES, 1.3 mM calcium chloride, 0.5 mM magnesium chloride and 0.4 mM magnesium sulfate were contained, pH7.4) to appropriate concentration.
The forced expression cells were washed with assay buffer, and 100 μL/well of fluorescent calcium indicator (Fluo-4 NW Calcium Assay Kit) was added and incubated in 5% CO2 incubator at 37° C. After incubation, 50 μL/well of each test compound was added, and the concentration of intracellular calcium was measured as fluorescent signal with FlexStation (registered mark) II (Molecular Devices). The data was analyzed by nonlinear regression and sigmoidal dose-response curve fitting using GraphPad PRISM 4.0, and values of EC50 (concentration of the compound producing half the maximal effect of the compound) were calculated. The data was presented as mean value (n=2).

[2] = biological target: T2, human dopamine D2 receptor (Homo sapiens, UniProt P14416); assay: Stimulating activities of human dopamine D2 receptor, [35S]GTPγS binding to hD2R#7 (HEK293) membrane homogenates; format: biochemical
T2 construct: expressed in transfected cells
T2 sequence (P14416 whole entry): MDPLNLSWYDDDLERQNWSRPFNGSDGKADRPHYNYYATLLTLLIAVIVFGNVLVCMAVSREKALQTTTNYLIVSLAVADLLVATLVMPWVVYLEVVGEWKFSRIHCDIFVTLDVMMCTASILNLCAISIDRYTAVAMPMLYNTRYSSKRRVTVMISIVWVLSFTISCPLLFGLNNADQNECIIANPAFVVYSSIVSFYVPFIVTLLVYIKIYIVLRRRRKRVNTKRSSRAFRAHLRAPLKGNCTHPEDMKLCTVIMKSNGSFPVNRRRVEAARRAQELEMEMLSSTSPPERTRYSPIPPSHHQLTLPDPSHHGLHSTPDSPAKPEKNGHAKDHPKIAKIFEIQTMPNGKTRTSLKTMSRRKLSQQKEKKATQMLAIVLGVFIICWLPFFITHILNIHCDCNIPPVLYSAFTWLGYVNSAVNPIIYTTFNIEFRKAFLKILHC
Experimental: Identification Test of Stimulating Activities on Human Dopamine D2 Receptor
The cells, which were grown to confluence in 150 mm dishes (IWAKI), were harvested with isotonic buffer (50 mM Tris (Sigma), 2 mM ethylenediamine-tetraacetic acid (Invitrogen), and 125 mM sodium chloride (Wako Pure Chemicals), pH 7.4) and centrifuged at 1880×g and 4° C. for 10 minutes, and the cell pellets were then suspended in isotonic buffer. After being subjected to one cycle of freezing and thawing, the cells were centrifuged at 1880×g and 4° C. for 10 minutes, and the cell pellets were suspended in isotonic buffer. The cells were centrifuged at 1880×g and 4° C. for 10 minutes, and the cell pellets were suspended in isotonic buffer and homogenate buffer (10 mM sodium bicarbonate (Nacalai) and 5 mM ethylenediamine-tetraacetic acid, pH 7.5). The volume ratio of isotonic-to-homogenate buffer was 2. The cells were sonicated and centrifuged at 1880×g and 4° C. for 10 minutes, and the supernatants were ultracentrifuged at 80000×g and 4° C. for 30 minutes. The final cell pellets were suspended in homogenate buffer containing protease inhibitor cocktail (Nacalai) and stored at −80° C. until use. The protein concentration was determined using BCA Protein Assay Kit (Pierce) in accordance with the manufacturer's instructions.
The stimulating activities of human dopamine D2 receptor was determined by measuring the binding potential of [^35S]-guanosine 5′-[gamma-thio]triphosphate ([^35S]GTPγS, PerkinElmer) according to the method described by Newman-Tancredi A. et al. (Naunyn-Schmiedeberg's Arch Pharmacol, 1999, vol. 359, pp. 447-453) with a minor modification. Test compounds and dopamine hydrochloride (Fluka) as positive control were dissolved in dimethyl sulfoxide (CARLBIOCHEM), resulting in 30 mM. The both compounds were diluted with assay buffer (50 mM Tris, 100 mM sodium chloride, 5 mM magnesium chloride (Nacalai), 1 mM ethylenediamine-tetraacetic acid, 1 mM dithiothreitol (Wako Pure Chemicals), 10 μM guanosine diphosphate (Wako Pure Chemicals) and 0.5% bovine serum albumin (Sigma), pH 7.4) to a final concentration of 100 pM (only test compounds), 1 nM, 10 nM, 100 nM, 1 μM, 10 μM and 100 μM (only dopamine hydrochloride). The above membrane homogenates and [^35S]GTPγS were diluted with assay buffer to a final concentration of 0.06 mg/mL and 0.6 nM, respectively. The serial diluted compounds (50 μL), the diluted membrane homogenates (50 μL) and the diluted [^35S]GTPγS (50 μL) were mixed on multi-screen 96-well plate (Millipore) and shaken lightly at room temperature for 60 minutes. The reaction was terminated by vacuum filtration with three times washes of ice-cold wash buffer (50 mM Tris, 100 mM sodium chloride, 5 mM magnesium chloride, and 1 mM ethylenediamine-tetraacetic acid, pH 7.4). After drying the bottoms of the plate at 60° C., MicroScinti-40 (PerkinElmer) (30 μL) was added in the plate. The tops of the plate were sealed by TopSeal-A (PerkinElmer), and the radioactivity was determined in a TopCount NXT (registered mark)(PerkinElmer) after shaking lightly for 5-10 minutes. The data was analyzed by nonlinear regression and sigmoidal dose-response curve fitting using GraphPad PRISM 4.0 (GraphPad Software), and values of EC50 (concentration of the compound producing half the maximal effect of the compound) were calculated. The data was presented as mean value (n=2).

[3] = test system: unilateral 6-hydroxydopamine-lesioned hemi-Parkisonian rats; assay: Contralateral rotational behavior in unilateral 6-hydroxydopamine-lesioned hemi-parkinsonian rats; format: in vivo, rat; conditions: orally 10 mg/kg, mean value; for Total number of rotations: contralateral rotations up to 24 hours after administration; for Duration: measured up to 24 hours after administration, duration of rotational response
Experimental: 6-OHDA was dissolved at 2 mg/mL in a physiolosical saline solution containing 0.2% L-ascorbic acid. Desipramine was dissolved at 10 mg/mL in a physiolosical saline solution in a hot-water bath. Apomorphine was dissolved at 0.1 mg/mL in a physiolosical saline solution. Ropinirole was dissolved in distilled water. Test compounds were dissolved in a solution containing 2% DMA, 100 or 200 mol % hydrochloric acid, and 98% of a 0.5% methyl cellulose solution. […] (Eur J Pharmacol, 2000, vol. 408, P. 249-255) with a minor modification. Male Sprague-Dawley rats (6-weeks-old, Charles River Laboratories Japan Inc.) were anaesthetized with intraperitoneal somnopentyl (45 mg/kg) injection and placed in a stereotaxic frame (Narishige). In order to prevent 6-OHDA-induced damage of noradrenergic neurons, desipramine (25 mg/kg) was intraperitoneally injected 30 minutes before the 6-OHDA injection. After the bregma identification via a middle calvarial incision, the skull was drilled using a dental drill at the site of 6-OHDA injection. The lesion was made by injecting 6-OHDA (8 μg in 4 μL at a speed of 1 μL/minute) unilaterally into the left medial forebrain bundle by using a injection cannula (30 gauge needle) connected to a microsyringe (Hamilton) (the lesion coordinates; A/P −2.5 mm, L/M −1.8 mm, and V/D −8.0 mm, from the bregma point and surface of the skull). The cannula was carefully removed from the animal after keeping placed on the lesion site for 5 minutes. The skull was filled its hole with dental cement, disinfected, and the scalp incision was surgically sutured. Animals recovered from anesthesia were housed as usual until the day of the experiment. Three weeks after the lesion, rats were tested on the basis of their contralateral rotational behavior (single rotation was defined as a 360° turn) in response to 0.1 mg/kg apomorphine given subcutaneously. For behavioral observation, rats were placed in plastic cylinders of a diameter of 30 cm, and its contralateral rotational behaviors were videotaped and quantified by rat-rotation auto counting system R-RACS (Kissei Wellcom). On the experimental day, animals were fasted overnight, and test compounds were orally administrated at doses of 10 mg/kg. The drug potency was measured until up to 24 hours after administration as the number of contralateral rotation. […] Total number of rotations and the duration of the response in experimental period were presented as mean value. As comparative example, ropinirole as non-ergot dopamine D2 receptor agonist, was examined in a similar fashion.

[4] = [35S]GTPγS binding, membrane homogenates, mean value (n=2), read-out: EC50

| EC50 [1] | EC50 [2, 4] | SMILES | Total number of rotations [3] | Duration [3] | EC50 [2] |
| --- | --- | --- | --- | --- | --- |
| > 10 µM | 19 nM | CCCN1C[C@@H](NC(=O)N(C)CCc2ccccc2)C[C@@H]2Cc3nc(N)ncc3C[C@H]21 (relative stereo) [Compound 1-11] |  |  |  |
| > 10 µM | 223 nM | CCCN1C[C@@H](NC(=O)N(CCc2ccccc2)CCN(C)C)C[C@@H]2Cc3nc(N)ncc3C[C@H]21 (relative stereo) [Compound 1-23, 3-[(5aR*,8S*,9aR*)-2-amino-6-propyl-5,5a,6,7,8,9,9a,10-octahydropyrido[2,3-g]quinazolin-8-yl]-1-[2-(dimethylamino)ethyl]-1-(2-phenylethyl)urea] | 9184.0 | 870.0 minuets |  |
| > 10 µM | 126 nM | CCCN1C[C@@H](NC(=O)N(CC)CCN2CCCCC2)C[C@@H]2Cc3nc(N)ncc3C[C@H]21 (relative stereo) [Compound 1-25, 3-[(5aR*,8S*,9aR*)-2-amino-6-propyl-5,5a,6,7,8,9,9a,10-octahydropyrido[2,3-g]quinazolin-8-yl]-1-ethyl-1-[2-(piperidin-1-yl)ethylurea] | 5025.0 | 621.3 minuets |  |
| > 10 µM | 93 nM | CCCN1C[C@@H](NC(=O)N(CC)CCN2CCc3ccccc3C2)C[C@@H]2Cc3nc(N)ncc3C[C@H]21 (relative stereo) [Compound 1-33] |  |  |  |
| > 10 µM | 34 nM | CCCN1C[C@@H](NC(=O)N(C)CCc2ccncc2)C[C@@H]2Cc3nc(N)ncc3C[C@H]21 (relative stereo) [Compound 1-36] |  |  |  |
| > 10 µM | 10 nM | CCCN1C[C@@H](NC(=O)N2CCc3ccccc3C2)C[C@@H]2Cc3nc(N)ncc3C[C@H]21 (relative stereo) [Compound 1-37] |  |  |  |
| > 10 µM | 39 nM | CCCN1C[C@@H](NC(=O)N(C)CCN(C)c2ccccc2)C[C@@H]2Cc3nc(N)ncc3C[C@H]21 (relative stereo) [Compound 1-39] |  |  |  |
| > 10 µM | 116 nM | CCCN1C[C@@H](NC(=O)N(CC)CCN(C)CCOC)C[C@@H]2Cc3nc(N)ncc3C[C@H]21 (relative stereo) [Compound 1-41] |  |  |  |
|  |  | CCCN1C[C@@H](NC(=O)N(CCN(C)C)CC(C)C)C[C@@H]2Cc3nc(N)ncc3C[C@H]21 [Compound 1-3, 3-[(5aR,8S,9aR)-2-amino-6-propyl-5,5a,6,7,8,9,9a,10-octahydropyrido[2,3-g]quinazolin-8-yl]-1-[2-(dimethylamino)ethyl]-1-(2-methylpropyl)urea] | 3610.5 | 387.5 minuets |  |
|  |  | CCCN1C[C@@H](NC(=O)N(C)C)C[C@@H]2Cc3nc(N)ncc3C[C@H]21 [Compound 1-5] |  |  | 9 nM |
|  |  | CCCN(CCC)CCc1cccc2c1CC(=O)N2 [Ropinirole, ropinirole, reference compound] | 276.3 | 61.3 minuets |  |

| SMILES | EC50 [1] | EC50 [2, 4] | Total number of rotations [3] | Duration [3] | EC50 [2] |
| --- | --- | --- | --- | --- | --- |
| CCCN1C[C@@H](NC(=O)N(C)CCOC)C[C@@H]2Cc3nc(N)ncc3C[C@H]21 (relative stereo) [Compound 1-12] | > 10 µM | 43 nM |  |  |  |
| CCCN1C[C@@H](NC(=O)NC)C[C@@H]2Cc3nc(N)ncc3C[C@H]21 (relative stereo) [Compound 1-13] | > 10 µM | 161 nM |  |  |  |
| CCCN1C[C@@H](NC(=O)N(C)C2CC2)C[C@@H]2Cc3nc(N)ncc3C[C@H]21 (relative stereo) [Compound 1-16] | > 10 µM | 93 nM |  |  |  |
| CCCN1C[C@@H](NC(=O)N2CCCCC2)C[C@@H]2Cc3nc(N)ncc3C[C@H]21 (relative stereo) [Compound 1-34] | > 10 µM | 63 nM |  |  |  |
| CCCN1C[C@@H](CO)C[C@@H]2Cc3nc(N)ncc3C[C@H]21 (relative stereo) [compound 1, [(5aR*,8S*,9aR*)-2-amino-6-propyl-5,5a,6,7,8,9,9a,10-octahydropyrido[2,3-g]quinazolin-8-yl]methanol, reference compound] |  | 2900 nM |  |  |  |
| CCCN1C[C@@H](NC(=O)N(CC)CCN(C)C)C[C@@H]2Cc3nc(N)ncc3C[C@H]21 [Compound 1-1, 3-[(5aR,8S,9aR)-2-Amino-6-propyl-5,5a,6,7,8,9,9a,10-octahydropyrido[2,3-g]quinazolin-8-yl]-1-[2-(dimethylamino)ethyl]-1-ethylurea] | > 10 µM | 64 nM | 5038.5 | 541.3 minuets |  |
